Results as given in patent US20080008991A1, “SYSTEM AND METHOD FOR OPTIMIZING DRUG THERAPY FOR THE TREATMENT OF DISEASES” (priority 2000, published 2008).
Where two headings read alike, the source gives them in different places.

Experiments:
[1] = system: HIV; settings: lopinavir plus efavirenz and 2 NRTIs, cited from earlier work
[2] = Amprenavir plasma trough concentration by LC-MS/MS in treatment-experienced patients; settings: human, in vivo; median; 12 hours after dosing; amprenavir 1200 mg bid with ritonavir or nelfinavir; 17 patients; read-out: Cmin
Protocol: Patients were enrolled into three parallel treatment groups that included abacavir 300 mg bid, amprenavir 1200 mg bid, and efavirenz 600 mg daily with either low dose ritonavir at 200 mg BID, high dose ritonavir at 500 mg bid, or nelfinavir 1250 mg bid.
Genotyping (VircoGEN II™, VIRCO) and VIRTUAL PHENOTYPE™ were performed on baseline samples. Viral load data were collected at baseline (mean of two pre-therapy samples) and at week 24. Serial pharmacokinetic samples were collected over 12 hours after week 3 for ritonavir-boosted regimens and after week 2 for nelfinavir-boosted regimens.
Amprenavir concentrations in plasma were determined by a validated LC-MS/MS method.
For amprenavir, nelfinavir, and ritonavir, the concentration 12 hours after dosing was used as the Cmin. For each drug, relationships between viral load change at week 24 and the Cmin, fold-change in resistance, and NIQ were fit to a sigmoidal maximum effect model.

[3] = system: HIV-1; assay: NIQ as predictor of virologic outcome at week 24; assay type: in vivo, human (patients)
Protocol: The normalized inhibitory quotient (NIQ) was determined as: [formula]
Where the IQ in an individual patient (IQpatient) was calculated as ratio of the patient's trough concentration (Cmin) to the susceptibility of the patient's virus to the drug, expressed as fold change compared to wild type virus (Virtual Phenotype). The IQpt was then related to the reference inhibitory quotient (IQref), in which the mean population trough concentration of the drug from the product label was divided by the cut-off value of the fold change for susceptible viruses.
For amprenavir, nelfinavir, and ritonavir, the concentration 12 hours after dosing was used as the Cmin. […]

SMILES | % of patients with viral load below 400 copies/mL at week 24 ([1]; lopinavir IQ 4-15) [%] | % of patients with viral load below 400 copies/mL at week 24 ([1]; lopinavir IQ <4) [%] | % of patients with viral load below 400 copies/mL at week 24 ([1]; lopinavir IQ >15) [%] | concentration at 12 h [2] [ng/mL] | patients with decrease in viral load to <400 copies/ml at week 24 ([3]; patients achieving NIQ>3.0) | patients with decrease in viral load to <400 copies/ml at week 24 ([3]; patients with NIQ<3.0)
Cc1cccc(C)c1OCC(=O)N[C@@H](Cc1ccccc1)[C@@H](O)C[C@H](Cc1ccccc1)NC(=O)[C@H](C(C)C)N1CCCNC1=O [lopinavir] | 80 | 70 | 100 | – | – | –
CC(C)CN(C[C@@H](O)[C@H](Cc1ccccc1)NC(=O)O[C@H]1CCOC1)S(=O)(=O)c1ccc(N)cc1 [Amprenavir, amprenavir] | – | – | – | 1270 | 7/8 | 1/9
